Data published in patent publication US20240383908A1, “SYNTHESIS AND APPLICATION OF PHOSPHATASE DEGRADER” (HINOVA PHARMACEUTICALS INC., priority 2021, published 2024).

What was measured:
SHP2 protein [1] = molecular target: T1, SHP2 protein (Homo sapiens, UniProt Q06124); assay: Degradation activity on SHP2 protein in NCI-H358 cells (Western blot, DC50); format: cell-based; design: endogenous in cells; conditions: read-out: Degradation activity for differenct cell lines NCI-H358 (DC50)
T1 sequence (Q06124 1-593): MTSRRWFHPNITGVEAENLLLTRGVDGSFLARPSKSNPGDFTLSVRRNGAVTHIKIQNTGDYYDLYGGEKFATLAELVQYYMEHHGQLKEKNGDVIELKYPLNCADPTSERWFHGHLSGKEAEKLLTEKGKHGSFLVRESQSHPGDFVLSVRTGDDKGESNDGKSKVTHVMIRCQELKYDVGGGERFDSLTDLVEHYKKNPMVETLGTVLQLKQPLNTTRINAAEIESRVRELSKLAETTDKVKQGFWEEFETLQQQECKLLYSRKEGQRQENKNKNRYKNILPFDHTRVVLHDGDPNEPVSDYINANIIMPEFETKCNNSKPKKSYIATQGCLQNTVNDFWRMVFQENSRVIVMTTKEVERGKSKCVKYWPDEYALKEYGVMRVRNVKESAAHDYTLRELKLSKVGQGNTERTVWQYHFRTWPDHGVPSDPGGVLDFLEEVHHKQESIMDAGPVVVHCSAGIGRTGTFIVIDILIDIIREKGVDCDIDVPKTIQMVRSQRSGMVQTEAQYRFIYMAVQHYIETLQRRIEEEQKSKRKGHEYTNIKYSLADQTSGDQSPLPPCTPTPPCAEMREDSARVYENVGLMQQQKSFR
Protocol: (1) MV-411 cells were cultured in the cell culture medium, and then well-growing cells were selected and inoculated in a 12-well plate, with 1 mL/well and 1×10^6 cells/well. The plate was incubated overnight in a 5% CO2 cell incubator at 37° C.
(2) 10 mM storage solution of each drug was prepared using dimethylsulfoxide (DMSO). The stock solution was diluted gradually with DMSO before use, and then 1 μL of the compound solution was added to the cell culture well (to ensure that the DMSO concentration in the culture system was […]), so that the final drug concentration is 100 nM, 10 nM, 3 nM, 1 nM, 0.3 nM, and 0.1 nM. Two wells were set for each concentration. The plate was gently shaken and mixed. Additionally, negative control wells (containing an equal amount of DMSO) and positive control wells were included.
(3) After 24 hours of cultivation, the cells were lysed using RIPA cell lysate, and the proteins were extracted. The protein concentration was measured using a BCA assay kit. 5× concentrated protein buffer was loaded, heated at 100° C. for 5 min, and then the sample was stored at −20° C.
(4) For each well, 30 μg of protein was loaded to polyacrylamide gel for electrophoresis.
(5) The protein was transferred from polyacrylamide gel to PVDF membrane, and sealed at room temperature with 5% skimmed milk for 1 h, which was then incubated with the primary antibodies (Anti-SHP2 rabbit mAb and Anti-GAPDH rabbit mAb) at 4° C. overnight. The membrane was washed three times with TBST solution, 10 minutes for each time. After that, the membrane was incubated with the secondary antibodies (horseradish peroxidase labeled goat anti-rabbit IgG) at room temperature for 2 h, and then washed three times with TBST solution, 10 minutes for each time, followed by exposure.
(6) The images were analyzed with Image J grayscale, and the degradation ratio of protein bands in the test group was calculated, based on the negative control group (DMSO) (100%).
(7) Using the Dose-response-inhibition equation in the data processing software GraphPad Prism 8, the DC50 value was obtained (which represents the drug concentration corresponding to 50% degradation of the target protein).
Using similar methods and different cell lines, the degradation activity of the compound according to the present invention on SHP2 protein of different cell lines was tested under suitable culture conditions.

SHP2 protein [2] = molecular target: T1, SHP2 protein; assay: Degradation activity on SHP2 protein in MIA Paca-2 cells (Western blot, DC50); format: cell-based; design: endogenous in cells; host or cells: MIA Paca-2 cells; conditions: read-out: Degradation activity for differenct cell lines MIA Paca-2 (DC50)
Summary of the method: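 DC50 is the concentration degrading 50% of SHP2 relative to DMSO control. It was derived by fitting Western blot band densitometry (anti-SHP2, GAPDH reference) from cells exposed 24 h to 0.1–100 nM compound in 0.1% DMSO.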

DC50 (SHP2 protein [1]) [nM] | DC50 (SHP2 protein [2]) [nM] | Compound
< 100 | < 100 | CC1(N)CCN(c2cnc(Sc3cccc(NC(=O)CCCCCCCCN4C5CCC4CC(c4ccc(C(=O)NCc6ccc7c(c6)CN(C6CCC(=O)NC6=O)C7=O)nn4)C5)c3)cn2)CC1 (single isomer, unassigned) [Compound 232]
< 100 |  | CC1(N)CCN(c2cnc(Sc3cccc(NC(=O)CCCCCCCCN4C5CCC4CC(c4ccc(C(=O)NCc6ccc7c(c6)CN(C6CCC(=O)NC6=O)C7=O)nn4)C5)c3)cn2)CC1 (single isomer, unassigned) [Compound 233]
< 100 |  | CC1(N)CCN(c2cnc(Sc3cccc(NC(=O)CCCCCCCCN4C5CCC4CC(c4ccc(C(=O)NCc6ccc7c(c6)CN(C6CCC(=O)NC6=O)C7=O)nn4)C5)c3)cn2)CC1 (single isomer, unassigned) [Compound 234]
< 100 |  | CC1(N)CCN(c2cnc(Sc3cccc(NC(=O)CCCCCCCOC4CCN(c5ccc(C(=O)NCc6ccc7c(c6)CN(C6CCC(=O)NC6=O)C7=O)nn5)CC4F)c3)cn2)CC1 (stereo not drawn) [Compound 147]
< 100 | < 100 | CC1(N)CCN(c2cnc(Sc3cccc(NC(=O)CCCCCCN4CC5(CCC(c6ccc(C(=O)NCc7ccc8c(c7)CN(C7CCC(=O)NC7=O)C8=O)nc6)CC5)C4)c3)cn2)CC1 (stereo not drawn) [Compound 216]
< 100 | < 100 | CC1(N)CCN(c2cnc(Sc3cccc(NC(=O)CCCCCCN4CC5(CC=C(c6ccc(C(=O)NCc7ccc8c(c7)CN(C7CCC(=O)NC7=O)C8=O)nc6)CC5)C4)c3)cn2)CC1 (stereo not drawn) [Compound 217]
< 100 | < 100 | CC1(N)CCN(c2cnc(Sc3cccc(NC(=O)CCCCCCCCN4CCC(c5ccc(C(=O)NCc6ccc7c(c6)CN(C6CCC(=O)NC6=O)C7=O)nn5)CC4)c3)cn2)CC1 (stereo not drawn) [Compound 218]
< 100 | < 100 | CC1(N)CCN(c2cnc(Sc3cccc(NC(=O)CCCCCCCCN4C5C=C(c6ccc(C(=O)NCc7ccc8c(c7)CN(C7CCC(=O)NC7=O)C8=O)nn6)CC4CC5)c3)cn2)CC1 (stereo not drawn) [Compound 219]
< 100 | < 100 | Cc1ncsc1-c1ccc([C@H](C)NC(=O)[C@@H]2C[C@@H](O)CN2C(=O)[C@@H](NC(=O)c2cnc(N3CCN(CCCCCC(=O)Nc4cccc(Sc5cnc(N6CCC(C)(N)CC6)cn5)c4)CC3)nc2)C(C)(C)C)cc1 [Compound 220]
< 100 | < 100 | Cc1ncsc1-c1ccc([C@H](C)NC(=O)[C@@H]2C[C@@H](O)CN2C(=O)[C@@H](NC(=O)c2cnc(N3CCN(CCCCC(=O)Nc4cccc(Sc5cnc(N6CCC(C)(N)CC6)cn5)c4)CC3)nc2)C(C)(C)C)cc1 [Compound 221]
< 100 | < 100 | CC1(N)CCN(c2cnc(Sc3cccc(NC(=O)CCCCCCCCN4CC=C(c5ccc(C(=O)NCc6ccc7c(c6)CN(C6CCC(=O)NC6=O)C7=O)nc5)C(C)(C)C4)c3)cn2)CC1 (stereo not drawn) [Compound 222]
< 100 | < 100 | CCC1(N)CCN(c2cnc(Sc3cccc(NC(=O)CCCCCCCCN4CCC(c5ccc(C(=O)NCc6ccc7c(c6)CN(C6CCC(=O)NC6=O)C7=O)nn5)CC4)c3)cn2)CC1 (stereo not drawn) [Compound 223]
< 100 | < 100 | CC1(N)C2CCC1CN(c1cnc(Sc3cccc(NC(=O)CCCCCCCCN4CCC(c5ccc(C(=O)NCc6ccc7c(c6)CN(C6CCC(=O)NC6=O)C7=O)nn5)CC4)c3)cn1)C2 (stereo not drawn) [Compound 224]
< 100 |  | CC1(N)CCN(c2cnc(Sc3cccc(NC(=O)CCCCCCCCN4CCN(c5ccc(C(=O)NCc6ccc7c(c6)CN(C6CCC(=O)NC6=O)C7=O)nn5)CC4C(F)(F)F)c3)cn2)CC1 (stereo not drawn) [Compound 225]
< 100 | < 100 | CCC1(N)CCN(c2cnc(Sc3cccc(NC(=O)CCCCCCCCN4CCN(c5ccc(C(=O)NCc6ccc7c(c6)CN(C6CCC(=O)NC6=O)C7=O)nn5)CC4C(F)(F)F)c3)cn2)CC1 (stereo not drawn) [Compound 226]
< 100 | < 100 | CC1(N)CCN(c2cnc(Sc3cccc(NC(=O)CCCCCCCCN4CCN(c5ccc(C(=O)NCc6ccc7c(c6)CN(C6CCC(=O)NC6=O)C7=O)nc5Cl)CC4C(F)(F)F)c3)cn2)CC1 (stereo not drawn) [Compound 227]
< 100 | < 100 | CC1CC(c2ccc(C(=O)NCc3ccc4c(c3)CN(C3CCC(=O)NC3=O)C4=O)nn2)=CCN1CCCCCCCCC(=O)Nc1cccc(Sc2cnc(N3CCC(C)(N)CC3)cn2)c1 (stereo not drawn) [Compound 228]
< 100 | < 100 | CC1(N)CCN(c2cnc(Sc3cccc(NC(=O)CCCCCCCCN4CCN(c5ccc(C(=O)NCc6ccc7c(c6)CN(C6CCC(=O)NC6=O)C7=O)cc5)CC4)c3)cn2)CC1 (stereo not drawn) [Compound 229]
< 100 | < 100 | Cc1ncsc1-c1ccc([C@H](C)NC(=O)[C@@H]2C[C@@H](O)CN2C(=O)[C@@H](NC(=O)c2cnc(N3CCN(CCCC(=O)Nc4cccc(Sc5cnc(N6CCC7(CC6)CO[C@@H](C)[C@H]7N)cn5)c4)CC3)nc2)C(C)(C)C)cc1 [Compound 230]
> 1000 | > 1000 | Cc1ncsc1-c1ccc([C@H](C)NC(=O)[C@@H]2C[C@@H](O)CN2C(=O)[C@@H](NC(=O)c2cnc(N3CCN(CC(=O)Nc4cccc(Sc5cnc(N6CCC(C)(N)CC6)cn5)c4)CC3)nc2)C(C)(C)C)cc1 [Compound 231]
< 100 |  | CC1(N)CCN(c2cnc(Sc3cccc(NC(=O)CCCCCCCCN4CCc5cc(C(=O)NCc6ccc7c(c6)CN(C6CCC(=O)NC6=O)C7=O)cnc5C4)c3)cn2)CC1 (stereo not drawn) [Compound 235]
< 100 |  | CC1(N)CCN(c2cnc(Sc3cccc(NC(=O)CCCCOc4ccc(N5CCN(c6ccc(C(=O)NCc7ccc8c(c7)CN(C7CCC(=O)NC7=O)C8=O)nn6)CC5)cc4)c3)cn2)CC1 (stereo not drawn) [Compound 236]
< 100 | < 100 | CC1(N)CCN(c2cnc(Sc3cccc(NC(=O)CCCCCCCCN4C[C@@H]5C[C@H]4CN5c4ccc(C(=O)NCc5ccc6c(c5)CN(C5CCC(=O)NC5=O)C6=O)nn4)c3)cn2)CC1 (stereo partly drawn) [Compound 237]
< 100 | < 100 | CC1(N)CCN(c2cnc(Sc3cccc(NC(=O)CCCCCCCCN4C[C@H]5C[C@@H]4CN5c4ccc(C(=O)NCc5ccc6c(c5)CN(C5CCC(=O)NC5=O)C6=O)nn4)c3)cn2)CC1 (stereo partly drawn) [Compound 238]
< 100 | < 100 | C[C@@H]1CN(CCCCCCCCC(=O)Nc2cccc(Sc3cnc(N4CCC(C)(N)CC4)cn3)c2)CCN1c1ccc(C(=O)NCc2ccc3c(c2)CN(C2CCC(=O)NC2=O)C3=O)nn1 (stereo partly drawn) [Compound 239]
> 1000 |  | Cc1ncsc1-c1ccc([C@H](C)NC(=O)[C@@H]2C[C@@H](O)CN2C(=O)[C@@H](NC(=O)c2cnc(N3CC(OCC(=O)Nc4cccc(Sc5cnc(N6CCC(C)(N)CC6)cn5)c4)C3)nc2)C(C)(C)C)cc1 [Compound 240]
< 100 | < 100 | Cc1ncsc1-c1ccc([C@H](C)NC(=O)[C@@H]2C[C@@H](O)CN2C(=O)[C@@H](NC(=O)c2cnc(N3CCN(CCCCCCC(=O)Nc4cccc(Sc5cnc(N6CCC(C)(N)CC6)cn5)c4)CC3)nc2)C(C)(C)C)cc1 [Compound 241]
< 100 | < 100 | CC1CN(CCCCCCCCC(=O)Nc2cccc(Sc3cnc(N4CCC(C)(N)CC4)cn3)c2)CC=C1c1ccc(C(=O)NC(C)c2ccc3c(c2)CN(C2CCC(=O)NC2=O)C3=O)nc1 (stereo not drawn) [Compound 242]
< 100 | < 100 | CC1CN(CCCCCCCCC(=O)Nc2cccc(Sc3cnc(N4CCC(C)(N)CC4)cn3)c2)CC=C1c1ccc(C(=O)NCc2ccc3c(c2)CN(C2CCC(=O)NC2=O)C3=O)nc1 (stereo not drawn) [Compound 243]
